Assay results taken from paper PMC8840040, “Pharmacokinetic Characterization of the DDAH1 Inhibitors ZST316 and ZST152 in Mice Using a HPLC-MS/MS Method” (Molecules, 2022).
Several values for one entry are separate records, joined by “and”; a condition that tells them apart may be missing. Identical values can stand only once. Like-named read-outs stand apart in the source and are kept apart here.

Tests used:
cancer cells = conditions: cited from earlier work; for degradation in the culture media: culture media of cancer cell experiments
[1] = Plasma pharmacokinetics and urinary elimination after single oral and intravenous administration; assay type: in vivo, FVB mice; conditions: for urinary excretion, range over oral and intravenous route: 24 h urine, p.o. 60 mg/Kg to i.v. 30 mg/Kg; for clearance: read-out: Clp (plasma clearance) (converted); for Vd: read-out: Vd (volume of distribution); for bioavailability: oral, 60 mg/Kg, read-out: F % (bioavailability); for time up to which detectable in plasma: concentration close to the LLOQ (5 ng/mL)
Experimental: Mice were treated with ZST316 and ZST152 using a dose of 60 mg/Kg (oral gavage) and 30 mg/Kg (intravenous bolus). For pharmacokinetic sampling, blood was collected at 15 and 30 min, and 1, 3, 8, and 24 h post dose. Three mice were analyzed per each time point. After the animals were anesthetized with isoflurane, the blood was drained from the retro-orbital plexus into heparinized tubes, and then centrifuged for 10 min at 4000× g at 4 °C to separate plasma. A 24-h urine fraction was collected in three mice for each drug and route of administration. Plasma and urine samples were stored at −20 °C until analysis by HPLC-MS/MS.
In the preliminary phase of the method set up, we tried different solvents, 2-propanol, methanol (CH3OH), and acetonitrile (CH3CN) at different pH conditions, quickly obtaining a satisfactory recovery with CH3OH: 0.1% formic acid (HCOOH). Briefly, to assay ZST316, 10 µL of IS (ZST152 WS: 500 ng/mL) were added to 100 µL of plasma study samples, standards, or QCs in a polypropylene tube. The sample was then added with 10 µL of ammonium formate (NH4HCO2) 50 mM, mixed by vortex and added with 400 µL CH3OH: 0.1% HCOOH, vortex mixed again for 30 s and centrifuged at 13,200 rpm for 10 min at 4 °C. A volume of 450 µL of the supernatant was transferred to a new polypropylene tube, dried under nitrogen flow, and reconstituted with 100 µL of MP A:B (1:1, v/v). Finally, the mixed samples were centrifuged at 13,200 rpm for 10 min at 4 °C and the supernatant was transferred into glass vials for HPLC-MS/ MS analysis. Plasma samples containing drug concentrations above the highest standard point of the calibration curve were reanalyzed following dilution with the control matrix.
To assay ZST316, 5 µL of IS (ZST152 WS: 100 µg/mL) were added to 50 µL of urine samples, standards, or QCs in a polypropylene tube. After vortex mixing, 490 µL of MP A:B (1:1; v/v) were added to 10 µL of each sample to obtain a final dilution of 1:50. Samples were vortex mixed again for 30 s, centrifuged at 13,200 rpm for 10 min at 4 °C, and, finally, the supernatant was transferred into glass vials for HPLC-MS/ MS analysis. The urine samples with drug concentrations above the highest standard point of the calibration curve were reanalyzed following dilution with control matrix.
[…] chromatography was performed using a series 200 HPLC system (Perkin Elmer, Waltham, MA, USA) under gradient conditions with separation on a HILIC column, 3 µm, 100 A, 2.1 × 150 mm (Waters, Milford, MA, USA), coupled with a 3 µm, 3.9 × 5.0 mm guard column of the same material at the flow rate of 0.2 mL/min. Gradient features: 10% mobile phase (MP) A (NH4HCO2 10 mM, 10% CH3CN, 0.1% HCOOH) and 90% MP B (CH3CN, 0.1% HCOOH) as the initial constant condition; then to 90% MP A in 6 min and the constant condition for 1.5 min. Return to the start condition in 0.5 min and conditioning for 5.5 min. Total run time: 13.5 min. Mass spectrometric detection was performed using an API 4000 triple quadrupole mass spectrometer (SCIEX, Framingham, MA, USA) supplied with a Turbo Ion Spray source set at 350 °C and −4200 V, analyzing biological samples with electrospray ionization (ESI) operating in negative ion mode. Purified air was used as nebulizer gas (Gas 1) and heater gas (Gas 2) and N2 was used as curtain gas and collision activated dissociation gas. They were set to 40, 50, 20, and 4 instrument units (psi), respectively. The declustering potential (DP) was set at −119 V and the collision exit potential (CXP) at –10 V. All parameters of the source were defined by direct infusion of ZST316 and ZST152 1 µg/mL in mobile phase B. The final quantification was carried out in Selected Reaction Monitoring (SRM) with the following transitions: m/z 307.9 → 208.0 (collision energy of −29.5 eV) for ZST316 and m/z 271.9 → 170.9 (collision energy −24.7 eV) for ZST152 (Figure 2 and Figure 3). Data were processed with the software package Analyst 1.6.2 (AB SCIEX). […]

[2] = tested on: triple-negative breast cancer cells; conditions: cited from earlier work; for suppression of vasculogenic mimicry: in vitro, triple-negative breast cancer cells
[3] = FVB, mouse, plasma, iv, 30 mg/kg, i.v. 30 mg/Kg, single bolus
[4] = FVB, mouse, plasma, iv, 30 mg/kg, i.v. 30 mg/Kg, read-out: AUC 0-8h
[5] = FVB, mouse, plasma, iv, 30 mg/kg, i.v. 30 mg/Kg, read-out: AUC 0-last
[6] = FVB, mouse, plasma, iv, 30 mg/kg, i.v. 30 mg/Kg, read-out: Half-life (converted)
[7] = FVB, mouse, plasma, iv, i.v. 30 mg/Kg
[8] = FVB, mouse, plasma, p.o. 60 mg/Kg vs i.v. 30 mg/Kg, dose normalized
[9] = FVB, mouse, plasma, po, 60 mg/kg, p.o. 60 mg/Kg, read-out: AUC 0-8h
[10] = FVB, mouse, plasma, po, 60 mg/kg, p.o. 60 mg/Kg, read-out: AUC 0-last
[11] = FVB, mouse, plasma, po, 60 mg/kg, p.o. 60 mg/Kg, read-out: Half-life (converted)
[12] = FVB, mouse, plasma, po, p.o. 60 mg/Kg

Row | SMILES | penetration of the cell membrane of cancer cells and intracellular DDAH1 inhibition (cancer cells) | degradation in the culture media (cancer cells) | urinary excretion, range over oral and intravenous route [1] | Cmax [1, 3] [ng/mL] | AUC(0-t) [1, 4] [ng·h/mL] | AUC(0-t) [1, 5] [ng·h/mL] | half-life [1, 6] [min] | AUC(0-inf) [1, 7] [ng·h/mL] | Tmax [1, 7] [min] | clearance [1, 7] [mL/min/kg] | Vd [1, 7] [L/kg] | bioavailability [1, 8] [%] | AUC(0-t) [1, 9] [ng·h/mL] | AUC(0-t) [1, 10] [ng·h/mL] | half-life [1, 11] [min] | AUC(0-inf) [1, 12] [ng·h/mL] | Tmax [1, 12] [min] | 24 h urinary excretion (% of dose) ([1]; i.v. 30 mg/Kg) | time up to which detectable in plasma ([1]; i.v. 30 mg/Kg) [h] | 24 h urinary excretion (% of dose) ([1]; p.o. 60 mg/Kg) | other results
1 | COCCNC(=N)NCCC[C@H](N)C(=O)NS(C)(=O)=O [ZST316] | able to successfully penetrate the cell membrane of cancer cells and inhibit DDAH1 intracellularly | did not significantly degrade | 2.3%–7.5% and 2.3–7.5% | 67400 | 21400 | 21500 | 360 | 21600 | 5 | 23.2 | 12.2 | < 5 | 1940 | 1940 | 97.8 | 2010 | 30 | 7.5 % of dose | 24 | 2.3 % of dose | Cmax ([1]; FVB, mouse, plasma, po, 60 mg/kg, p.o. 60 mg/Kg, single dose): 1020 ng/mL; concentration at 8 h ([1]; FVB, mouse, plasma, po, p.o. 60 mg/Kg, 8 h post dose): 29 ng/mL; AUC after intravenous administration relative to that of ZST152 ([1]; i.v. 30 mg/Kg): approximately twice; time up to which measurable in plasma ([1]; p.o. 60 mg/Kg): 8 h; suppression of in vitro vasculogenic mimicry and migration ([2]; MDA-MD-231 cells, ref recent demonstration by our group): suppresses in vitro vasculogenic mimicry and migration; suppression of vasculogenic mimicry [2]: suppress vasculogenic mimicry
2 | COCCNC(=N)NCCC[C@H](N)c1noc(=O)[nH]1 [ZST152] | able to successfully penetrate the cell membrane of cancer cells and inhibit DDAH1 intracellularly | did not significantly degrade | 12.5%–22.2% and 12.5–22.2% | 24900 | 9250 | 9250 | 72 | 9260 | 5 | 54 | 5.49 | 33 | 6170 | 6170 | 51.6 | 6180 | 15 | 22.2 % of dose | 8 | 12.5 % of dose | half-life ([1]; i.v. 30 mg/Kg, 30 mg/kg): 70.2 min; time up to which measurable in plasma ([1]; p.o. 60 mg/Kg): 8 h; F % (bioavailability) ([1]; p.o. 60 mg/Kg vs i.v. 30 mg/Kg, dose normalized): 33.3%; urinary excretion relative to that of ZST316 ([1]; regardless of the route of administration): four- to fivefold; suppression of vasculogenic mimicry [2]: suppress vasculogenic mimicry
